Assay results taken from patent US20260217701A1, “SELECTIVE BET INHIBITORS AND USES THEREOF” (Tay Therapeutics Limited, priority 2022, published 2026).
Several values for one entry are separate records, joined by “and”; a condition that tells them apart may be missing. Equal entries are not always repeated.

Test system: imiquimod-induced psoriasis
Assay: Imiquimod-induced psoriasis model
Assay type: in vivo, mice
Design: Spleen Weight / Spleen Weight Ratio: unit not given here
Conditions: for PASI Scores: IMI + Clobetasol 0.05%; for Mean scores of the presence of erythema on the skin of animals at the area of induction of psoriasis / Mean scores of the presence of induration on the skin of animals at the area of induction of psoriasis / Mean scores of the presence of peeling on the skin of animals at the area of induction of psoriasis: mean ± SEM
Source text: Imiquimod-induced psoriasis is a model of psoriasis in mice that induces psoriasis-like dermatitis. The pathology closes resembles human plaque-type psoriasis and is a valuable tool for testing new therapies against psoriasis. […] Compound A was formulated in a 5% DMSO/40% PEG-400/55% (0.9% NaCl w/v water) solution (Table 2F). Experimental groups for the study are outlined in Table 4. Prior to study initiation, the backs of all animals in the study were depilated to allow for induction of psoriasis and monitoring of disease progression.
Once assigned to experimental groups, on Day 1 and continuing through Day 14, topical imiquimod (IMI; Aldara™ containing 5% Imiquimod) was administered to the dorsal depilated animals, and animals in group 1 received topical administration of Excipial® hydrocream (65 mg). […] Clobetasol was applied topically for animals in group 11.
Body weights were recorded three times a week from Day 1 to Day 8, and daily from Day 8 until the study end at Day 15. At termination on D15 the spleen weight ratio was determined. Disease severity was assessed using the psoriasis area severity index (PASI) daily from Day 8 until study completion on Day 15. The PASI score was calculated based on three parameters (presence of erythema, induration of the skin, and peeling of the skin at the area of induction) on a scale of 0 to 4 (0=no more or absence, 1=low, 2=moderate, 3=high, 4=severe). The PASI score for each animal was calculated as the sum of the score of each parameter measured. The score of the use of enrichment (SUE) was also assessed daily from Day 8 to Day 15. At study completion on Day 15, animal behavior was evaluated using an open field to assess distance travelled, number scratching, and licking and rearing performed in 10 minutes. Upon study termination animals were sacrificed, the spleen was excised and weighed, and blood samples were collected. Serum was isolated from the blood sample for cytokine and other biomarker analysis. IL-1B, IL-6, IL-17, and TNF-α assayed using simple plex technique on an ELLA automated immunoassay system. IL-22 and IL-23 were assayed by ELISA.
The imiquimod-induced model of psoriasis was used to assess the efficacy of Compound A in treating psoriasis. […] Treatment started on Day 8 after induction so reference to day 1 of treatment is to Day 8 and day 7 of treatment is to Day 14.

[1] = IMI-psoriasis model, behavioral evaluation D15, 0.05%, individual animals
[2] = IMI-psoriasis model, behavioral evaluation, 0.05%, individual animals
[3] = IMI-psoriasis model, mice, 0.05%, individual animals
[4] = IMI + 0.05%, D8 (before start of treatment)

With C[C@H]1C[C@H]2[C@@H]3CCC4=CC(=O)C=C[C@]4(C)[C@@]3(F)[C@@H](O)C[C@]2(C)[C@@]1(O)C(=O)CCl [Clobetasol, reference compound] the “Body Weight D1” value (IMI + 0.05%, Day 1 (before treatment start on Day 8), individual animals) was 17.07 and 17.52 and 19.31 and 18.57 and 18.72 and 16.56 and 17.64 and 16.77, the “Body Weight D3” value (IMI + 0.05%, Day 3 (before treatment start on Day 8), individual animals) was 14.93 and 16.02 and 17.76 and 17.57 and 17.77 and 14.09 and 14.81 and 14.86 and the “Body Weight D5” value (IMI + 0.05%, Day 5 (before treatment start on Day 8), individual animals) was 16.15 and 15.56 and 18.21 and 17.74 and 16.72 and 15.29 and 15.64 and 15.11. For the same compound, the “Body Weight D7” value (IMI + 0.05%, Day 7 (before treatment start on Day 8), individual animals) was 15.51 and 15.49 (2×) and 18.30 and 17.72 and 17.41 and 15.14 and 16.24, the “Body Weight D8” value (IMI + 0.05%, Day 8 (first day of treatment), individual animals) was 15.82 and 15.39 and 18.05 and 17.68 and 16.64 and 14.96 and 16.14 and 14.67 and the “Body Weight D9” value (IMI + 0.05%, Day 9, individual animals) was 15.95 and 14.96 and 17.53 and 16.98 and 15.65 and 14.35 and 14.99 and 14.71. The “Body Weight D10” value (IMI + 0.05%, Day 10, individual animals) was 15.11 and 14.48 and 17.43 and 16.38 and 15.37 and 14.04 and 14.71 and 14.32, the “Body Weight D11” value (IMI + 0.05%, Day 11, individual animals) was 15.27 and 14.85 and 17.41 and 16.38 and 15.58 and 13.84 and 14.92 and 14.21 and the “Body Weight D12” value (IMI + 0.05%, Day 12, individual animals) was 14.64 and 14.74 and 17.02 and 15.95 and 15.45 and 13.69 and 15.73 and 14.31. The “Body Weight D13” value (IMI + 0.05%, Day 13, individual animals) was 14.45 and 14.82 and 16.74 and 15.71 and 15.24 and 13.39 and 14.65 and 14.05, the “Body Weight D14” value (IMI + 0.05%, Day 14, individual animals) was 14.55 and 14.89 and 16.65 and 15.49 and 15.08 and 13.55 and 14.66 and 14.04 and the “Body Weight D15” value (IMI + 0.05%, Day 15, individual animals) was 14.30 and 14.75 and 16.22 and 15.41 and 14.99 and 13.32 and 14.54 and 14.22. The “MBWC D1-D8” value (IMI + 0.05%, body weight change Day 1 to Day 8 (before treatment), individual animals) was −1.25 and −2.13 and −1.26 and −0.89 and −2.08 and −1.60 and −1.50 and −2.10, the “MBWC D8-D15” value (IMI + 0.05%, body weight change Day 8 to Day 15 (treatment period), individual animals) was −1.52 and −0.64 and −1.83 and −2.27 and −1.65 and −1.64 and −1.60 and −0.45 and the “PASI Scores” value (D8 (day treatment started), individual animals) was 7 (5×) and 8 (3×). For the same compound, the “PASI Scores” value (D9, individual animals) was 6 (2×) and 4 (4×) and 5 (2×), the “PASI Scores” value (D10, individual animals) was 3 (5×) and 2 (2×) and 4 and the “PASI Scores” value (D11, individual animals) was 0 (5×) and 1 and 2 (2×). For the same compound, the “PASI Scores” value (D12, individual animals) was 1 (6×) and 0 (2×), the “PASI Scores” value (D13, individual animals) was 1 (3×) and 0 (5×) and the “PASI Scores” value (D14, individual animals) was 0 (7×) and 1. For the same compound, the “PASI Scores” value (D15, individual animals) was 0 (7×) and 1, the “Use Enrichment D1” value (IMI-psoriasis model, D1, 0.05%, per cage (two animals)) was 4.0 and the “Use Enrichment D9” value (IMI-psoriasis model, D9, 0.05%, per cage (two animals)) was 2.0 and 1.5 and 1.0. For the same compound, the “Use Enrichment D10” value (IMI-psoriasis model, D10, 0.05%, per cage (two animals)) was 4.0 and 3.5 and 3.0, the “Use Enrichment D11” value (IMI-psoriasis model, D11, 0.05%, per cage (two animals)) was 4.0 and 3.0 and the “Use Enrichment D13” value (IMI-psoriasis model, D13, 0.05%, per cage (two animals)) was 4.0 and 3.5. For the same compound, the “Use Enrichment D14” value (IMI-psoriasis model, D14, 0.05%, per cage (two animals)) was 4.0, the “Use Enrichment D15” value (IMI-psoriasis model, D15, 0.05%, per cage (two animals)) was 4.0 and the “Number Licking” value [1] was 1 (2×) and 2 (4×) and 5 (2×). The “Number Licking + Scratching” value [1] was 1 (2×) and 2 (4×) and 5 (2×), the “Number Scratching” value [1] was 0 and the “Distance Traveled” value [2] was 9 m (2×) and 5 m and 10 m (3×) and 15 m and 16 m. For the same compound, the “Number Rearings” value [2] was 10 and 6 (2×) and 31 and 19 and 4 and 39 and 25, the “Use Enrichment Mean D1-D8” value (IMI-psoriasis model, mean D1-D8, 0.05%, per cage (two animals)) was 2.50 and 2.75 and 2.25 and the “Use Enrichment Mean D8-D15” value (IMI-psoriasis model, mean D8-D15, 0.05%, per cage (two animals)) was 3.71 and 3.50 and 2.86 and 3.14. For the same compound, the “Spleen Weight” value [3] was 39.92 and 30.38 and 50.46 and 44.29 and 37.25 and 36.61 and 35.08 and 34.69, the “Spleen Weight Ratio” value [3] was 279.16 and 205.97 and 311.10 and 287.41 and 248.50 and 274.85 and 241.27 and 243.95 and the “Mean scores of the presence of erythema on the skin of animals at the area of induction of psoriasis” value (“Mean scores of the presence of erythema” below) [4] was 2.3 ± 0.2. For the same compound, the “Mean scores of the presence of induration on the skin of animals at the area of induction of psoriasis” value [4] was 2.8 ± 0.2, the “Mean scores of the presence of peeling on the skin of animals at the area of induction of psoriasis” value (shortened to “Mean scores of the presence of peeling”) [4] was 2.4 ± 0.2 and the “Mean scores of the presence of erythema” value (IMI + 0.05%, D9) was 1.8 ± 0.2. For the same compound, the “Mean scores of the presence of induration on the skin of animals at the area of induction of psoriasis” value (IMI + 0.05%, D9) was 1.3 ± 0.2, the “Mean scores of the presence of peeling” value (IMI + 0.05%, D9) was 1.8 ± 0.3 and the “Mean scores of the presence of erythema” value (IMI + 0.05%, D10) was 1.0 ± 0.2. For the same compound, the “Mean scores of the presence of induration on the skin of animals at the area of induction of psoriasis” value (IMI + 0.05%, D10) was 1.0 ± 0.0, the “Mean scores of the presence of peeling” value (IMI + 0.05%, D10) was 0.9 ± 0.1 and the “Mean scores of the presence of erythema” value (IMI + 0.05%, D11) was 0.3 ± 0.2. The “Mean scores of the presence of induration on the skin of animals at the area of induction of psoriasis” value (IMI + 0.05%, D11) was 0.0 ± 0.0, the “Mean scores of the presence of peeling” value (IMI + 0.05%, D11) was 0.4 ± 0.2 and the “Mean scores of the presence of erythema” value (IMI + 0.05%, D12) was 0.0 ± 0.0. The “Mean scores of the presence of induration on the skin of animals at the area of induction of psoriasis” value (IMI + 0.05%, D12) was 0.0 ± 0.0, the “Mean scores of the presence of peeling” value (IMI + 0.05%, D12) was 0.8 ± 0.2 and the “Mean scores of the presence of erythema” value (IMI + 0.05%, D13) was 0.0 ± 0.0. The “Mean scores of the presence of induration on the skin of animals at the area of induction of psoriasis” value (IMI + 0.05%, D13) was 0.0 ± 0.0, the “Mean scores of the presence of peeling” value (IMI + 0.05%, D13) was 0.4 ± 0.2 and the “Mean scores of the presence of erythema” value (IMI + 0.05%, D14) was 0.0 ± 0.0. The “Mean scores of the presence of induration on the skin of animals at the area of induction of psoriasis” value (IMI + 0.05%, D14) was 0.0 ± 0.0, the “Mean scores of the presence of peeling” value (IMI + 0.05%, D14) was 0.1 ± 0.1 and the “Mean scores of the presence of erythema” value (IMI + 0.05%, D15) was 0.0 ± 0.0. The “Mean scores of the presence of induration on the skin of animals at the area of induction of psoriasis” value (IMI + 0.05%, D15) was 0.0 ± 0.0, the “Mean scores of the presence of peeling” value (IMI + 0.05%, D15) was 0.1 ± 0.1 and the “Mean PASI Scores in IMI-Psoriasis Model” value (mice, IMI + 0.05%, D8 (before start of treatment)) was 7.4 ± 0.2. For the same compound, the “Mean PASI Scores in IMI-Psoriasis Model” value (mice, IMI + 0.05%, D9) was 4.8 ± 0.3, the “Mean PASI Scores in IMI-Psoriasis Model” value (mice, IMI + 0.05%, D10) was 2.8 ± 0.2 and the “Mean PASI Scores in IMI-Psoriasis Model” value (mice, IMI + 0.05%, D11) was 0.6 ± 0.3. The “Mean PASI Scores in IMI-Psoriasis Model” value (mice, IMI + 0.05%, D12) was 0.8 ± 0.2, the “Mean PASI Scores in IMI-Psoriasis Model” value (mice, IMI + 0.05%, D13) was 0.4 ± 0.2 and the “Mean PASI Scores in IMI-Psoriasis Model” value (mice, IMI + 0.05%, D14) was 0.1 ± 0.1. For the same compound, the “Mean PASI Scores in IMI-Psoriasis Model” value (mice, IMI + 0.05%, D15) was 0.1 ± 0.1.
